Here are results for 4 molecules from patent US7470668B2, “Method of use of specific natriuretic peptide receptor c ligands, transgenic non-human mammals expressing specific natriuretic peptide receptor c antagonists and cells thereof” (Enobia Pharma Inc., priority 2005, dated 2008).

In test [1] the test system is primary rat osteoblastic cultures. The conditions noted are these: cited from earlier work.
The target of test [2] is T1, NPR-C (Homo sapiens, UniProt P17342).
T1 construct: expressed in transfected cells; host or cells: HEK293, transient, pCDNA1.1 (CMV promoter)
T1 sequence (P17342 27-541): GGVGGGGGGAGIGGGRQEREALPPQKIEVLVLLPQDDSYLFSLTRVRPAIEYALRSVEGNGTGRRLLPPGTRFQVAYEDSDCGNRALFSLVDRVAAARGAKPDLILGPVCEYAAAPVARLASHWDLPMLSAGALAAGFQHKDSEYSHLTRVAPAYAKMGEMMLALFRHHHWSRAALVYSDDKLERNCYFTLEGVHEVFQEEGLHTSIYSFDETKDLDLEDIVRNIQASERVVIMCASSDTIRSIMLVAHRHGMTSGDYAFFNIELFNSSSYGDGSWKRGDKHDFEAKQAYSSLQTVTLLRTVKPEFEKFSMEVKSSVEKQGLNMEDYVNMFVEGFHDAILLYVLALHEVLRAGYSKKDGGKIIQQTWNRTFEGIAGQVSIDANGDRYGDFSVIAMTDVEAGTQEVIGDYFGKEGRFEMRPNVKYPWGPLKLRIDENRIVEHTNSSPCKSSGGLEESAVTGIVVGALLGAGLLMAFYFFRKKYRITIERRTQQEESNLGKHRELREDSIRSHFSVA
Nature of the test: ANP-stimulated cGMP in NPR-C overexpressing HEK293 cells. Format: cell-based. The following applies: NPR-C overexpressing cells, 0.1 nM ANP[1-28] alone. The source says: The expression plasmid for rat GC-A containing the entire coding sequence cloned between the NheI-KpnI sites of CMV-driven pBK plasmid (Stratagene, La Jolla, Calif.) was kindly provided by Dr. A. De Léan (Département de Pharmacologie, Université de Montréal). The human NPR-C and GC-B coding sequences were amplified by RT-PCR from human embryonic kidney polyA RNA (Clontech, Palo Alto, Calif.) with the following primer pairs: NPR-C-5′-[…]-3′(forward) (SEQ ID NO: 74) and 5′-[…]-3′ (SEQ ID NO: 75) (reverse); GC-B-5′-[…]-3′ (SEQ ID NO: 76) (forward) and 5′-[…]-3′ (SEQ ID NO: 77) (reverse). The resulting PCR products were then cloned downstream of the CMV-promoter into the pCDNA1.1 plasmid (Invitrogen, Burlington, ON, Canada). All constructs were validated by DNA sequencing.

Test [3] has as its target T2, NPR-C (Mus musculus, UniProt P70180).
T2 construct: NPR-C was also found to be expressed in these cells; endogenous in cells; host or cells: ATDC5 (mouse chondrogenic cell line), intact cells
T2 sequence (P70180 41-536): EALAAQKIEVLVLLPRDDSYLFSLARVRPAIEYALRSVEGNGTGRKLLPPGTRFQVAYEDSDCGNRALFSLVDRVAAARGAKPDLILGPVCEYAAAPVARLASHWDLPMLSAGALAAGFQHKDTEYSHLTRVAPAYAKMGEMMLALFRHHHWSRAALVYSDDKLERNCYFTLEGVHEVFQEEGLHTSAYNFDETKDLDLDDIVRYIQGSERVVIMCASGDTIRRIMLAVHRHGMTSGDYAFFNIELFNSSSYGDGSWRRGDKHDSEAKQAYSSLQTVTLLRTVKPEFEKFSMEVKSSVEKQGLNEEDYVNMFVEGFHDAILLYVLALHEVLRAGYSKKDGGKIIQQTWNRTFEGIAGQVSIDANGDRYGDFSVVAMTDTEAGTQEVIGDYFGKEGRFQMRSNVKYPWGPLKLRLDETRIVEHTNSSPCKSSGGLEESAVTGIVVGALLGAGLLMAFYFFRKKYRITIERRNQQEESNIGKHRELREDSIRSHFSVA
Nature of the test: Competitive binding of 125I-Ostn[83-133] on ATDC5 cells. The source says:
To gain further insight into the cellular basis of the interaction between CNP and Ostn in endochondral bone formation, ATDC5 cells were used. These cells are a mouse chondrogenic cell line derived from embryogenic carcinoma cells (Shukunami et al., 1996). […] In another study, NPR-C was also found to be expressed in these cells and the amount of transcripts decreased in association with the chondrogenic differentiation (Fujishige et al., 1999).
(§1) Cold and radio iodinated human Ostn[83-133] (SEQ ID NO: 41) were purchased from Phoenix Pharmaceutical co. (CA, USA). CNP was obtained from Sigma (St. Louis, USA) and rat C-ANF was purchased from Bachem (CA, USA). Cyclic GMP direct Biotrak™ EIA kit was obtained from Amersham Biosciences (Quebec, Canada) and DMEM/F-12 and PBS were obtained from Wisent (Quebec, Canada). Protease inhibitors were purchased from Roche (Quebec, Canada)
ATDC5 cells, grown in 24-well plates to 90% confluence, were washed twice with cold PBS and incubated with 500 μl of DMEM/F-F12 containing 0.1% BSA (wt/vol), protease inhibitor (40 μl/ml of medium), ^1251-Ostn[83-133] (0.05 μCi/well) and varying concentration of cold Ostn[83-133] (SEQ ID NO: 41) for 90 min at 4° C. After incubation, cells were washed twice with ice-cold PBS and solubilized with 0.5-ml of 0.5 M NaOH.
The radioactivity was measured with gamma-counter (Wallac).

The subject of a further test is ATDC5 cells. Nature of the test: cGMP production in ATDC5 cells. Format: cell-based, mouse. The following applies: for cGMP production by peptide alone: 0.1 μM.
Description: To gain further insight into the cellular basis of the interaction between CNP and Ostn in endochondral bone formation, ATDC5 cells were used. These cells are a mouse chondrogenic cell line derived from embryogenic carcinoma cells (Shukunami et al., 1996). […] In another study, NPR-C was also found to be expressed in these cells and the amount of transcripts decreased in association with the chondrogenic differentiation (Fujishige et al., 1999). Therefore, ATDC5 cells are considered to be a good model to study the interaction between CNP and Ostn in vitro.
as §1
Cells, grown in 24-well plates to 90% confluence, were washed twice with PBS and incubated in DMEM/F12 containing 1 mM IBMX, a protease inhibitor cocktail (40 ul/ml of medium), 0.1% BSA with or without C-ANF (0.1 μM) or Ostn[83-133] (0.1 μM) for 10 min at 37° C. prior to the addition of varying concentrations of CNP. They were then incubated for 15 min. After incubation, cells were washed twice with PBS and scraped in ice-cold ethanol (65%). The supernatant, obtained by centrifuging at 2000×g for 15 min at 4° C., was evaporated to dryness via speed vac. The amount of cGMP was measured with cGMP direct Biotrak™ EIA kit.

The subject of test [4] is foetal mouse tibial organ culture. The following applies: ex vivo foetal mouse tibia; cited from earlier work.
The next test has as its target T3, human GC-B (Homo sapiens, UniProt P20594).
T3 construct: expressed in transfected cells; host or cells: HEK293, transient, pCDNA1.1 (CMV promoter)
T3 sequence (P20594 23-1047): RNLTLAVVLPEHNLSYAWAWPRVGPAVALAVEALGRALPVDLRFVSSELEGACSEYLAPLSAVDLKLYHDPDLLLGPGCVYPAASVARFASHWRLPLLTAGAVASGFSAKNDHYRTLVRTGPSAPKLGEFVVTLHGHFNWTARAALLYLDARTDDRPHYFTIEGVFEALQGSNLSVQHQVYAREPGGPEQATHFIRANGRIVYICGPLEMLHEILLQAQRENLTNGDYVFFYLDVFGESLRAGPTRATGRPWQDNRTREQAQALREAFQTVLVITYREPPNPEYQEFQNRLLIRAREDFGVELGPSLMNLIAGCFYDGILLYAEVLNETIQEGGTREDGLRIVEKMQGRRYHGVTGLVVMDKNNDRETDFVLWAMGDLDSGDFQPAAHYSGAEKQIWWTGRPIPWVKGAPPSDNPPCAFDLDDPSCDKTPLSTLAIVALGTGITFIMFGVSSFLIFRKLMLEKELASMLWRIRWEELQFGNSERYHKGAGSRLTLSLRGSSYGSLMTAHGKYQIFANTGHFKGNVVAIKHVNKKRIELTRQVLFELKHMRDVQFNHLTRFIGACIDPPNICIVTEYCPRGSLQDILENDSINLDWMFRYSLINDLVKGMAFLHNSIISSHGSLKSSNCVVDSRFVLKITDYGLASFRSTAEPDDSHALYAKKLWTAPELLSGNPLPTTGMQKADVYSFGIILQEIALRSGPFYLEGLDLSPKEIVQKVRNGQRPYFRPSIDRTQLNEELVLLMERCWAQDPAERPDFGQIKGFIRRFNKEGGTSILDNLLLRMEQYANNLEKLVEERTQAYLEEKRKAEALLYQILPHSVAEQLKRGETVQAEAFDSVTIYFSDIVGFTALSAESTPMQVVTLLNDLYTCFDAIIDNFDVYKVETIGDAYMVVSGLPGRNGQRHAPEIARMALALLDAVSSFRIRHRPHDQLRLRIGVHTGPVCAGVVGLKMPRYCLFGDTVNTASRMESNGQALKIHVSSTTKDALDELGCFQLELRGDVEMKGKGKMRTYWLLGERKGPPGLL
Nature of the test: Intracellular cGMP in GC-B transfected HEK293 cells. The format is cell-based. The following applies: 10 nM peptide, 15 min.

Positions of bridges follow the written chain, without caps; N, C: chain ends. Residues, ends and D or L forms follow the SMILES beside them. No end group written: not given here.

For `CC[C@H](C)[C@@H]1NC(=O)[C@H](CCCNC(=N)N)NC(=O)[C@H](CC(=O)O)NC(=O)[C@H](CCSC)NC(=O)[C@H](CCCNC(=N)N)NC(=O)CNC(=O)CNC(=O)[C@H](Cc2ccccc2)NC(=O)[C@@H](NC(=O)[C@H](CO)NC(=O)[C@H](CO)NC(=O)[C@H](CCCNC(=N)N)NC(=O)[C@H](CCCNC(=N)N)NC(=O)[C@H](CC(C)C)NC(=O)[C@@H](N)CO)CSSC[C@@H](C(=O)N[C@@H](CC(N)=O)C(=O)N[C@@H](CO)C(=O)N[C@@H](Cc2ccccc2)C(=O)N[C@@H](CCCNC(=N)N)C(=O)N[C@@H](Cc2ccc(O)cc2)C(=O)O)NC(=O)CNC(=O)[C@H](CC(C)C)NC(=O)CNC(=O)[C@H](CO)NC(=O)[C@H](CCC(N)=O)NC(=O)[C@H](C)NC(=O)CNC1=O` [ANP], in test [1], the “effect on osteoblast differentiation” value is “stimulated osteoblast differentiation” and the effect on proliferation entry was “inhibited proliferation”. The “increase in cGMP levels upon ANP stimulation” value on NPR-C [2] was 1.5 fold.

Molecule `CC[C@H](C)[C@@H]1NC(=O)[C@H](CCCNC(=N)N)NC(=O)[C@H](CC(=O)O)NC(=O)[C@H]([C@@H](C)CC)NC(=O)[C@H](CCCNC(=N)N)NC(=O)CNC(=O)CNC(=O)[C@H](Cc2ccccc2)NC(=O)[C@@H](NC(=O)[C@H](CO)NC(=O)[C@H](CO)NC(=O)[C@@H](N)CCCNC(=N)N)CSSC[C@@H](C(N)=O)NC(=O)[C@H](C)NC(=O)CNC1=O` [C-ANF] (H-RSSCFGGRIDRIGAC-NH2; disulfide 4-15; N-terminus and C-terminus assumed) came in with an IC50 on NPR-C [3] of 6.7 nM. Also, the “maximal inhibition, less than that of cold Ostn[83-133]” value on NPR-C [3] (1 μM) was determined as 15%. The “effect on osteoblast differentiation” value in test [1] was “no effect”. Also, the “cGMP production by peptide alone” value in the test on ATDC5 cells is on record as “only trace of cGMP production”. For the same molecule, the “effect on bone length” value in test [4] is “no effect”.

For the molecule “CNP: natriuretic peptide CNP (1-22) from Sigma; GC-B selective agonist”, in test [1], the “effect on osteoblast differentiation” value is reported as “stimulated osteoblast differentiation” and the effect on proliferation result is “inhibited proliferation”. Besides, in the test with human GC-B, the “intracellular cGMP response via GC-B” value is “greatest responses”. In addition, the cGMP production result in the test on ATDC5 cells (varying concentrations of CNP, 15 min) is listed as “concentration-dependent cGMP production”. The “effect on bone length” value in test [4] is “significant increases in bone length”.

Consider “SFSGFGSPLDRLSAGSVDHKGKQRKVVDHPKRRFGIPMDRIGRNRLSNSRG [Ostn[83-133]]”, for which the “inhibition of bound 125I-Ostn[83-133]” value on NPR-C [3] (1 μM cold peptide) was “More than 90%”. At NPR-C [3] (ATDC5 cells, 24-well plates), this molecule returned a total binding of 76.5 pmol/well. In addition, in the test with ATDC5 cells, the “cGMP production by peptide alone” value was “only trace of cGMP production”.
